Measured values reported in US9359297B2, “Spirolactam derivatives and uses of same” (H. Lundbeck A/S, priority 2009, dated 2016).

Target: T1, human metabotropic glutamate receptor 5 (hmGluR5) (Homo sapiens, UniProt P41594)
T1 construct: expressed in transfected cells
Assay: Calcium mobilization (FLIPR) assay for negative allosteric modulation, EC80 glutamate, hmGluR5 in HEK 293
Format: cell-based
Conditions: HEK293; hmGluR5, inhibition of EC80 glutamate response; read-out: FLIPR maximum inhibition
Description: The cDNA for rat metabotropic glutamate receptor 5 (rmGluR5) and the cDNA for human metabotropic glutamate receptor 5 (hmGluR5) were generous gifts from S. Nakanishi (Kyoto University, Kyoto, Japan). The rmGluR5 or hmGluR5 was stably expressed in a HEK 293 cell line and grown in Dulbecco's Modified Eagle Medium (DMEM) (Invitrogen, Carlsbad, Calif.) with supplements (10% bovine calf serum, 4 mM glutamine, 100 units/mL penicillin, 100 μg/mL streptomycin and 0.75 mM G1418) at 37° C., 5% CO2. Twenty-four hours prior to assay, cells were seeded into 384-well black wall microtiter plates coated with poly-D-lysine. Just prior to assay, media was aspirated and cells dye-loaded (25 μL/well) with 3 μM Fluo-4/0.01% pluronic acid in assay buffer (Hank's Balanced Saline Solution (HBSS)): 150 mM NaCl, 5 mM KCl, 1 mM CaCl2, 1 mM MgCl2, plus 20 mM N-2-Hydroxyethylpiperazine-N′-2-ethanesulfonic acid (HEPES), pH 7.4, 0.1% bovine serum albumin (BSA) and 2.5 mM probenicid) for 1 hour in 5% CO2 at 37° C. After excess dye was discarded, cells were washed in assay buffer and layered with a final volume equal to 30 μL/well. Basal fluorescence is monitored in a fluorometric imaging plate reader (FLIPR) (Molecular Devices, Sunnyvale, Calif.) with an excitation wavelength of 488 nm and an emission range of 500 to 560 nm. Laser excitation energy was adjusted so that basal fluorescence readings were approximately 10,000 relative fluorescent units. Cells were stimulated with an EC20 or an EC80 concentration of glutamate in the presence of a compound to be tested, both diluted in assay buffer, and relative fluorescent units were measured at defined intervals (exposure=0.6 sec) over a 3 min period at room temperature. Basal readings derived from negative controls were subtracted from all samples. Maximum change in fluorescence was calculated for each well. Concentration-response curves derived from the maximum change in fluorescence were analyzed by nonlinear regression (Hill equation). A negative modulator can be identified from these concentration-response curves if a compound produces a concentration dependent inhibition of the EC80 glutamate response.

T1 sequence (P41594 21-1212): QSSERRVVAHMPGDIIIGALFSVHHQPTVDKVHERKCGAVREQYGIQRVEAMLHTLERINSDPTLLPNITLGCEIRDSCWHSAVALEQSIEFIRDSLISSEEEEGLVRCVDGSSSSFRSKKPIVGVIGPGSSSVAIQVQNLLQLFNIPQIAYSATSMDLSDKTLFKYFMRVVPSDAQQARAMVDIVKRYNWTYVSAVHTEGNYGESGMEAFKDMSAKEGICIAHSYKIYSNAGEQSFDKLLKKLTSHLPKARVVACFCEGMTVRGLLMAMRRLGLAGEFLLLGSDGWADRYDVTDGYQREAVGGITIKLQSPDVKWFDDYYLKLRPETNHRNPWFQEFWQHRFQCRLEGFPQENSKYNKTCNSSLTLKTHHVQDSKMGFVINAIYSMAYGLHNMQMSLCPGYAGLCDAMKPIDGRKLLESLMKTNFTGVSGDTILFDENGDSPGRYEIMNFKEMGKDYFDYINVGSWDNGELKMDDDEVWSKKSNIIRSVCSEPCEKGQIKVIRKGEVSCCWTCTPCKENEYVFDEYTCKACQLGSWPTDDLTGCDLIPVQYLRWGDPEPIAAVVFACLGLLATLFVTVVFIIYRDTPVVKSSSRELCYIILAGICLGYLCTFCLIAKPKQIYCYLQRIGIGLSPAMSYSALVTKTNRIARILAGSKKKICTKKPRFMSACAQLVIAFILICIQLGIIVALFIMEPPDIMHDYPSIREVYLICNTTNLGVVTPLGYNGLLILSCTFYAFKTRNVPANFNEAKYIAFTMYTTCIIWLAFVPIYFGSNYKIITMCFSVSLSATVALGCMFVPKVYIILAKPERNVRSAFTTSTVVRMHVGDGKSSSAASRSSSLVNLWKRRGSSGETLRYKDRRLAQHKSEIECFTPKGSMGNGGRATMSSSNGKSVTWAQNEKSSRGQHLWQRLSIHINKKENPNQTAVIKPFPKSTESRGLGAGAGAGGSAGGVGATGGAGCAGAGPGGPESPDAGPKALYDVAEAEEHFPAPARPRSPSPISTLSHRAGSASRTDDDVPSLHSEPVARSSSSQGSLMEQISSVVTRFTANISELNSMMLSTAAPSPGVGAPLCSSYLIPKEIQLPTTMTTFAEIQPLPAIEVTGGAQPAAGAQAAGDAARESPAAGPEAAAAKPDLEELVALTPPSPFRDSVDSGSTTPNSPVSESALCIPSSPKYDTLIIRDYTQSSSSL

| SMILES | Emax [%] |
| --- | --- |
| Cc1cccc(C(=O)N[C@@H]2CC(F)(F)C[C@@]3(CCN(c4ccnc(C)n4)C3=O)C2)n1 (relative stereo) [Example 108, cis-6-Methyl-pyridine-2-carboxylic acid [9,9-difluoro-2-(2-methyl-pyrimidin-4-yl)-1-oxo-2-aza-spiro[4.5]dec-7-yl]-amide] | 47 to 93 |
| O=C(N[C@@H]1CC(F)(F)C[C@@]2(CCN(c3ccc(F)cn3)C2=O)C1)c1ccccn1 (relative stereo) [Example 111, cis-Pyridine-2-carboxylic acid [9,9-difluoro-2-(5-fluoro-pyridin-2-yl)-1-oxo-2-aza-spiro[4.5]dec-7-yl]-amide] | 47 to 93 |
| Cc1nccc(N2CC[C@]3(C[C@H](NC(=O)c4ccccn4)CC(F)(F)C3)C2=O)n1 (relative stereo) [Example 112, cis-Pyridine-2-carboxylic acid [9,9-difluoro-2-(2-methyl-pyrimidin-4-yl)-1-oxo-2-aza-spiro[4.5]dec-7-yl]-amide] | 47 to 93 |
| Cc1nccc(C(=O)N[C@@H]2CC(=O)C[C@@]3(CCN(c4cc(F)cc(F)c4)C3=O)C2)n1 (relative stereo) [Example 115, cis-2-Methyl-pyrimidine-4-carboxylic acid [2-(3,5-difluoro-phenyl)-1,9-dioxo-2-aza-spiro[4.5]dec-7-yl]-amide] | 47 to 93 |
| Cc1nccc(C(=O)N[C@@H]2C[C@H](O)C[C@@]3(CCN(c4cc(F)cc(F)c4)C3=O)C2)n1 (relative stereo) [Example 116, cis-2-Methyl-pyrimidine-4-carboxylic acid [2-(3,5-difluorphenyl)-9-hydroxy-1-oxo-2-aza-spiro[4.5]dec-7-yl]-amide] | 47 to 93 |
| Cc1nccc(C(=O)N[C@@H]2C[C@@H](O)C[C@@]3(CCN(c4cc(F)cc(F)c4)C3=O)C2)n1 (relative stereo) [Example 117, trans-2-Methyl-pyrimidine-4-carboxylic acid [2-(3,5-difluorphenyl)-9-hydroxy-1-oxo-2-aza-spiro[4.5]dec-7-yl]-amide] | 47 to 93 |
| Cc1nccc(C(=O)N[C@@H]2C[C@@H](F)C[C@@]3(CCN(c4cc(F)cc(F)c4)C3=O)C2)n1 (relative stereo) [Example 122, trans-2-Methyl-pyrimidine-4-carboxylic acid [2-(3,5-difluoro-phenyl)-9-fluoro-1-oxo-2-aza-spiro[4.5]dec-7-yl]-amide] | 47 to 93 |
| O=C1C[C@@H](NC(=O)c2cccc(F)c2)C[C@]2(CCN(c3cccc(F)c3)C2=O)C1 (relative stereo) [Example 123, cis-3-Fluoro-N-[2-(3-fluoro-phenyl)-1,9-dioxo-2-aza-spiro[4.5]dec-7-yl]-benzamide] | 47 to 93 |
| Cc1cccc(C(=O)N[C@@H]2CC(=O)C[C@@]3(CCN(c4cccc(F)c4)C3=O)C2)n1 (relative stereo) [Example 124, cis-6-Methyl-pyridine-2-carboxylic acid [2-(3-fluoro-phenyl)-1,9-dioxo-2-aza-spiro[4.5]dec-7-yl]-amide] | 47 to 93 |
| O=C(N[C@@H]1C[C@@H](O)C[C@@]2(CCN(c3cccc(F)c3)C2=O)C1)c1cccc(F)c1 (relative stereo) [Example 125, trans-3-Fluoro-N-[2-(3-fluoro-phenyl)-9-hydroxy-1-oxo-2-aza-spiro[4.5]dec-7-yl]-benzamide] | 47 to 93 |
| Cc1cccc(C(=O)N[C@@H]2C[C@@H](O)C[C@@]3(CCN(c4cccc(F)c4)C3=O)C2)n1 (relative stereo) [Example 126, trans-6-Methyl-pyridine-2-carboxylic acid [2-(3-fluoro-phenyl)-9-hydroxy-1-oxo-2-aza-spiro[4.5]dec-7-yl]-amide] | 47 to 93 |
| COc1cccc(N2CC[C@]3(CCC[C@H](NC(=O)c4cccc(F)c4)C3)C2=O)c1 (relative stereo) [Example 130, cis-3-Fluoro--N-[-2-(3-methoxy-phenyl)-1-oxo-2-aza-spiro[4.5]dec-7-yl]-benzamide] | 47 to 93 |
| O=C(N[C@H]1CCC[C@]2(CCN(c3cccc(O)c3)C2=O)C1)c1cccc(F)c1 (relative stereo) [Example 131, cis-3-Fluoro-N-[2-(3-hydroxy-phenyl)-1-oxo-2-aza-spiro[4.5]dec-7-yl]-benzamide] | 47 to 93 |
| COc1ccc(N2CC[C@]3(CCC[C@H](NC(=O)c4cccc(F)c4)C3)C2=O)cc1 (relative stereo) [Example 133] | 47 to 93 |
| O=C(N[C@H]1CCC[C@]2(CCN(c3cccc(CCCN4CCOCC4)c3)C2=O)C1)c1cccc(F)c1 (relative stereo) [Example 134, cis-3-Fluoro-N-{2-[3-(3-morpholin-4-yl-propyl)-phenyl]-1-oxo-2-aza-spiro[4.5]dec-7-yl}-benzamide] | 47 to 93 |
| COc1cc(F)cc(N2CC[C@]3(CCC[C@H](NC(=O)c4cccc(F)c4)C3)C2=O)c1 (relative stereo) [Example 135, cis-3-Fluoro-N-[2-(3-fluoro-5-methoxy-phenyl)-1-oxo-2-aza-spiro[4.5]dec-7-yl]-benzamide] | 47 to 93 |
| O=C(N[C@H]1CCC[C@]2(CCN(c3cccc(OCC(=O)N4CCCC4)c3)C2=O)C1)c1cccc(F)c1 (relative stereo) [Example 136, cis-3-Fluoro-N-{1-oxo-2-[3-(2-oxo-2-pyrrolidin-1-yl-ethoxy)-phenyl]-2-aza-spiro[4.5]dec-7-yl}-benzamide] | 47 to 93 |
| O=C(N[C@H]1CCC[C@]2(CCN(c3cccc(F)c3)C2=O)C1)c1nccs1 (relative stereo) [Example 137, cis-Thiazole-2-carboxylic acid [2-(3-fluoro-phenyl)-1-oxo-2-aza-spiro[4.5]dec-7-yl]-amide] | 47 to 93 |
| CN(C)c1ccc(N2CC[C@]3(CCC[C@H](NC(=O)c4cccc(F)c4)C3)C2=O)cc1 (relative stereo) [Example 138, cis-N-[2-(4-Dimethylamino-phenyl)-1-oxo-2-aza-spiro[4.5]dec-7-yl]-3-fluoro-benzamide] | 47 to 93 |
| O=C(N[C@H]1CCC[C@]2(CCN(c3nccs3)C2=O)C1)c1cccc(F)c1 (relative stereo) [Example 139, cis-3-Fluoro-N-(1-oxo-2-thiazol-2-yl-2-aza-spiro[4.5]dec-7-yl)-benzamide] | 47 to 93 |
| Cc1nccc(N2CC[C@]3(CCC[C@H](NC(=O)c4nccs4)C3)C2=O)n1 (relative stereo) [Example 140] | 47 to 93 |
| COc1cc(F)cc(N2CC[C@@]3(CCC[C@@H](NC(=O)c4ccnc(C)n4)C3)C2=O)c1 (relative stereo) [Example 141, cis-2-Methyl-pyrimidine-4-carboxylic acid [2-(3-fluoro-5-methoxy-phenyl)-1-oxo-2-aza-spiro[4.5]dec-7-yl]-amide] | 47 to 93 |
| N#Cc1cc(F)cc(N2CC[C@@]3(CCC[C@@H](NC(=O)c4cccc(F)c4)C3)C2=O)c1 (relative stereo) [Example 142, cis-N-[2-(3-Cyano-5-fluoro-phenyl)-1-oxo-2-aza-spiro[4.5]dec-7-yl]-3-fluoro-benzamide] | 47 to 93 |
| O=C(N[C@@H]1CCC[C@@]2(CCN(c3cc(F)cc(F)c3)C2=O)C1)c1nccs1 (relative stereo) [Example 143, cis-Thiazole-2-carboxylic acid [2-(3,5-difluoro-phenyl)-1-oxo-2-aza-spiro[4.5]dec-7-yl]-amide] | 47 to 93 |
| Cc1nc(C(=O)N[C@@H]2CCC[C@@]3(CCN(c4cc(F)cc(F)c4)C3=O)C2)cs1 (relative stereo) [Example 144, cis-2-Methyl-thiazole-4-carboxylic acid [2-(3,5-difluoro-phenyl)-1-oxo-2-aza-spiro[4.5]dec-7-yl]-amide] | 47 to 93 |
| CCCCC(=O)N[C@@H]1CCC[C@@]2(CCN(c3cc(F)cc(F)c3)C2=O)C1 (relative stereo) [Example 145, cis-Pentanoic acid [2-(3,5-difluoro-phenyl)-1-oxo-2-aza-spiro[4.5]dec-7-yl]-amide] | 47 to 93 |
| CCCC(=O)N[C@@H]1CCC[C@@]2(CCN(c3cc(F)cc(F)c3)C2=O)C1 (relative stereo) [Example 146, cis-N-[2-(3,5-Difluoro-phenyl)-1-oxo-2-aza-spiro[4.5]dec-7-yl]-butyramide] | 47 to 93 |
| Cc1nccc(N2CC[C@]3(CCC[C@H](NC(=O)c4ccc(F)cn4)C3)C2=O)n1 (relative stereo) [Example 149] | 47 to 93 |
| O=C(N[C@H]1CCC[C@]2(CCN(c3ccnc(C(F)(F)F)n3)C2=O)C1)c1cccc(F)c1 (relative stereo) [Example 150, cis-3-Fluoro-N-[1-oxo-2-(2-trifluoromethyl-pyrimidin-4-yl)-2-aza-spiro[4.5]dec-7-yl]-benzamide] | 47 to 93 |
